In US20240246946A1, “MODULATORS OF TREX1” (Constellation Pharmaceuticals, Inc., priority 2021, published 2024):
Where two headings read alike, the source gives them in different places.

Columns and labels:
[1] = target: T1, full length human TREX1 (Homo sapiens, UniProt Q9NSU2); experiment: hTREX1 Biochemical Assay (fluorescence, dsDNA substrate degradation)
T1 construct: N-terminally His-Tev tagged full length human TREX1; made in house; host or cells: E. coli
T1 sequence (Q9NSU2 1-314): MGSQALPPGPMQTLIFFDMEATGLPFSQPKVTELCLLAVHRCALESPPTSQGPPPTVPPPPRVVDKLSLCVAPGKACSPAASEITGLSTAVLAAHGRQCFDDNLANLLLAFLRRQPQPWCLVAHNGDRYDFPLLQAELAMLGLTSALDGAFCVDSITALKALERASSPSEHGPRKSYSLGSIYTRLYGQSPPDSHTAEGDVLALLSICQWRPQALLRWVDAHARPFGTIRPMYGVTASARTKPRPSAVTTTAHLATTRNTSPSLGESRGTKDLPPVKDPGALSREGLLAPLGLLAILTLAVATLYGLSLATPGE
In short: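 Cleavage of 60 nM TEX615/quencher-labelled dsDNA in pH 7.4 Tris buffer with 5 mM MgCl2, 1.0% DMSO, run 18 hours at 25° C, EDTA-quenched; fluorescence read-out.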

[2] = target: T2, full length mouse TREX1 (Mus musculus, UniProt Q91XB0); experiment: mTREX1 Biochemical Assay (fluorescence, dsDNA substrate degradation)
T2 construct: N-terminally His-Tev tagged full length mouse TREX1; made in house; host or cells: E. coli
T2 sequence (Q91XB0 1-314): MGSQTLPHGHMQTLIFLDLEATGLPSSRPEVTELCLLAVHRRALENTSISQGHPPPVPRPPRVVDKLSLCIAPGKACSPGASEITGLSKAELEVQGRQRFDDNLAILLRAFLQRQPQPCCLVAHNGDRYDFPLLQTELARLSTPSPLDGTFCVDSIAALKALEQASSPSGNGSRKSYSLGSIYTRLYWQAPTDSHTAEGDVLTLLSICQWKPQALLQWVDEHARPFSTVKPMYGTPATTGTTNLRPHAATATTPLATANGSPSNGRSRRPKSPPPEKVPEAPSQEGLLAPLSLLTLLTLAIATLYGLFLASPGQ
In short: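 Reaction run 18 h at 25° C. with 60 nM TEX615/quencher-labelled dsDNA and 6 pM mouse TREX1 in Tris buffer (pH 7.4, 5 mM MgCl2, 1.0% DMSO), enzyme having sat 4 h with compound across 10 concentrations. EDTA quench; substrate degradation measured as fluorescence increase.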

[3] = biochemical, read-out: hTREX1 IC50
[4] = biochemical, read-out: mTREX1 IC50

Row | SMILES | IC50 [1, 3] | IC50 [2, 4] | IC50 ([1]; hTREX1 IC50, biochemical) | IC50 ([2]; mTREX1 IC50, biochemical)
1 | Cc1ccn(C(c2ccccc2Cl)C(C)c2nc(C(=O)Nc3cnoc3)c(O)c(=O)n2C)n1 (single isomer, unassigned) [Example 49 D1E2] | > 10 nM | > 10 nM |  | 
2 | CC(c1nc(C(=O)Nc2cnoc2)c(O)c(=O)n1C)C(c1cocn1)c1ccccc1C#N (single isomer, unassigned) [Example 50 D1E2] | > 10 nM | > 10 nM |  | 
3 | CC(c1nc(C(=O)Nc2cnoc2)c(O)c(=O)n1C)C(c1cocn1)c1ccccc1C#N (single isomer, unassigned) [Example 50 D2E2] | > 10 nM | > 10 nM |  | 
4 | CC(c1nc(C(=O)Nc2cnoc2)c(O)c(=O)n1C)C(c1ncn(C)n1)c1ccccc1C#N (single isomer, unassigned) [Example 51 D1E1] | > 10 nM | > 10 nM |  | 
5 | CC(c1nc(C(=O)Nc2cnoc2)c(O)c(=O)n1C)C(c1ncn(C)n1)c1ccccc1C#N (single isomer, unassigned) [Example 51 D2E1] | > 10 nM | > 10 nM |  | 
6 | CC(c1nc(C(=O)Nc2cnoc2)c(O)c(=O)n1C)C(c1ncn(C)n1)c1ccccc1C#N (single isomer, unassigned) [Example 51 D2E2] | > 10 nM | > 10 nM |  | 
7 | CC(c1nc(C(=O)Nc2cnoc2)c(O)c(=O)n1C)C(c1ccccc1C#N)c1c(C#N)cnn1C (single isomer, unassigned) [Example 52 D1E2] | > 10 nM | > 10 nM |  | 
8 | CC(c1nc(C(=O)Nc2cnoc2)c(O)c(=O)n1C)C(c1ccccc1C#N)c1c(C#N)cnn1C (single isomer, unassigned) [Example 52 D2E2] | > 10 nM | > 10 nM |  | 
9 | Cc1cncc(C(c2ccccc2C#N)C(C)c2nc(C(=O)Nc3cnoc3)c(O)c(=O)n2C)n1 (single isomer, unassigned) [Example 53 D1E1] | > 10 nM | > 10 nM |  | 
10 | Cc1cncc(C(c2ccccc2C#N)C(C)c2nc(C(=O)Nc3cnoc3)c(O)c(=O)n2C)n1 (single isomer, unassigned) [Example 53 D2E1] | > 10 nM | > 10 nM |  | 
11 | Cc1cncc(C(c2ccccc2C#N)C(C)c2nc(C(=O)Nc3cnoc3)c(O)c(=O)n2C)n1 (single isomer, unassigned) [Example 53 D2E2] | > 10 nM | > 10 nM |  | 
12 | Cc1ccnn1C(c1ccccc1Cl)C(C)c1nc(C(=O)Nc2cnoc2)c(O)c(=O)n1C (single isomer, unassigned) [Example 54 D1E1] |  |  | 1 to 10 nM | 1 to 10 nM
13 | Cc1ccnn1C(c1ccccc1Cl)C(C)c1nc(C(=O)Nc2cnoc2)c(O)c(=O)n1C (single isomer, unassigned) [Example 54 D1E2] |  |  | > 10 nM | > 10 nM
14 | CCn1cc(C(c2ccc(F)cc2C#N)C(C)c2nc(C(=O)Nc3cnoc3)c(O)c(=O)n2C)c(C)n1 (single isomer, unassigned) [Example 55 D1E2] | > 10 nM | > 10 nM |  | 
15 | Cc1nn(C)cc1C(c1ccc(F)cc1C#N)C(C)c1nc(C(=O)Nc2cnoc2)c(O)c(=O)n1C (single isomer, unassigned) [Example 56 D1E2] | > 10 nM | > 10 nM |  | 
16 | Cc1nn(C)cc1C(c1ccc(F)cc1C#N)C(C)c1nc(C(=O)Nc2cnoc2)c(O)c(=O)n1C (single isomer, unassigned) [Example 56 D2E1] | 1 to 10 nM | > 10 nM |  | 
17 | Cc1nn(C)cc1C(c1ccc(F)cc1C#N)C(C)c1nc(C(=O)Nc2cnoc2)c(O)c(=O)n1C (single isomer, unassigned) [Example 56 D2E2] | > 10 nM | > 10 nM |  | 
18 | Cc1nn(C)cc1C(c1cc(F)ccc1C#N)C(C)c1nc(C(=O)Nc2cnoc2)c(O)c(=O)n1C (single isomer, unassigned) [Example 57 D2E2] | > 10 nM | > 10 nM |  | 
19 | CC(c1nc(C(=O)Nc2cnoc2)c(O)c(=O)n1C)C(c1cnn(C)c1)c1cc(F)ccc1Cl (single isomer, unassigned) [Example 61 D1E2] | > 10 nM | > 10 nM |  | 
20 | CC(c1nc(C(=O)Nc2cnoc2)c(O)c(=O)n1C)C(c1cnn(C)c1)c1cc(F)ccc1Cl (single isomer, unassigned) [Example 61 D2E1] | > 10 nM | > 10 nM |  | 
21 | CC(c1nc(C(=O)Nc2cnoc2)c(O)c(=O)n1C)C(c1cnn(C)c1)c1cc(F)ccc1Cl (single isomer, unassigned) [Example 61 D2E2] | > 10 nM | > 10 nM |  | 

Row | SMILES | IC50 [1, 3] | IC50 [2, 4] | IC50 ([1]; hTREX1 IC50, biochemical) | IC50 ([2]; mTREX1 IC50, biochemical)
22 | Cc1nn(C)cc1C(c1cc(F)ccc1Cl)C(C)c1nc(C(=O)Nc2cnoc2)c(O)c(=O)n1C (single isomer, unassigned) [Example 62 D1E1] | > 10 nM | > 10 nM |  | 
23 | Cc1nn(C)cc1C(c1cc(F)ccc1Cl)C(C)c1nc(C(=O)Nc2cnoc2)c(O)c(=O)n1C (single isomer, unassigned) [Example 62 D1E2] | > 10 nM | > 10 nM |  | 
24 | Cc1nn(C)cc1C(c1cc(F)ccc1Cl)C(C)c1nc(C(=O)Nc2cnoc2)c(O)c(=O)n1C (single isomer, unassigned) [Example 62 D2E1] | > 10 nM | > 10 nM |  | 
25 | Cc1cc(C(c2ccccc2C#N)C(C)c2nc(C(=O)Nc3cnoc3)c(O)c(=O)n2C)n(C)n1 (single isomer, unassigned) [Example 63 D2E1] | > 10 nM | > 10 nM |  | 
26 | Cc1cc(C(c2ccccc2C#N)C(C)c2nc(C(=O)Nc3cnoc3)c(O)c(=O)n2C)n(C)n1 (single isomer, unassigned) [Example 63 D2E2] | > 10 nM | > 10 nM |  | 
27 | Cc1cn(C)nc1C(c1ccccc1C#N)C(C)c1nc(C(=O)Nc2cnoc2)c(O)c(=O)n1C (single isomer, unassigned) [Example 64 D1E1] | < 1 nM | > 10 nM |  | 
28 | Cc1cn(C)nc1C(c1ccccc1C#N)C(C)c1nc(C(=O)Nc2cnoc2)c(O)c(=O)n1C (single isomer, unassigned) [Example 64 D1E2] | > 10 nM | > 10 nM |  | 
29 | Cc1cn(C)nc1C(c1ccccc1C#N)C(C)c1nc(C(=O)Nc2cnoc2)c(O)c(=O)n1C (single isomer, unassigned) [Example 64 D2E2] | > 10 nM | > 10 nM |  | 
30 | CCn1ncc(C(c2ccc(F)cc2C#N)C(C)c2nc(C(=O)Nc3cnoc3)c(O)c(=O)n2C)c1C (single isomer, unassigned) [Example 65 D1E2] | > 10 nM | > 10 nM |  | 
31 | CCn1ncc(C(c2ccc(F)cc2C#N)C(C)c2nc(C(=O)Nc3cnoc3)c(O)c(=O)n2C)c1C (single isomer, unassigned) [Example 65 D2E2] | < 1 nM | > 10 nM |  | 
32 | CC(c1nc(C(=O)Nc2cnoc2)c(O)c(=O)n1C)C(c1cnccn1)c1ccccc1C#N (single isomer, unassigned) [Example 66 D1E2] | 1 to 10 nM | > 10 nM |  | 
33 | CC(c1nc(C(=O)Nc2cnoc2)c(O)c(=O)n1C)C(c1cnccn1)c1ccccc1C#N (single isomer, unassigned) [Example 66 D2E1] | 1 to 10 nM | > 10 nM |  | 
34 | CC(c1nc(C(=O)Nc2cnoc2)c(O)c(=O)n1C)C(c1cnccn1)c1ccccc1C#N (single isomer, unassigned) [Example 66 D2E2] | > 10 nM | > 10 nM |  | 
35 | CCn1ncc(C(c2ccccc2C#N)C(C)c2nc(C(=O)Nc3cnoc3)c(O)c(=O)n2C)c1C (single isomer, unassigned) [Example 68 D1E2] | > 10 nM | > 10 nM |  | 
36 | CCn1ncc(C(c2ccccc2C#N)C(C)c2nc(C(=O)Nc3cnoc3)c(O)c(=O)n2C)c1C (single isomer, unassigned) [Example 68 D2E2] | > 10 nM | > 10 nM |  | 
37 | COCCn1ncc(C(c2ccccc2C#N)C(C)c2nc(C(=O)Nc3cnoc3)c(O)c(=O)n2C)c1C (single isomer, unassigned) [Example 69 D1E2] | > 10 nM | > 10 nM |  | 
38 | COCCn1ncc(C(c2ccccc2C#N)C(C)c2nc(C(=O)Nc3cnoc3)c(O)c(=O)n2C)c1C (single isomer, unassigned) [Example 69 D2E1] | > 10 nM | > 10 nM |  | 
39 | CCn1cc(C(c2ccccc2C#N)C(C)c2nc(C(=O)Nc3cnoc3)c(O)c(=O)n2C)c(C)n1 (single isomer, unassigned) [Example 70 D1E2] | > 10 nM | > 10 nM |  | 
40 | CCn1cc(C(c2ccccc2C#N)C(C)c2nc(C(=O)Nc3cnoc3)c(O)c(=O)n2C)c(C)n1 (single isomer, unassigned) [Example 70 D2E1] | 1 to 10 nM | > 10 nM |  | 
41 | CCn1cc(C(c2ccccc2C#N)C(C)c2nc(C(=O)Nc3cnoc3)c(O)c(=O)n2C)c(C)n1 (single isomer, unassigned) [Example 70 D2E2] | > 10 nM | > 10 nM |  | 
